For test [1], the system named is plasmid DNA. The experiment in a line: Plasmid DNA breakage, ^123I/^125I double isotope method. It counts as biochemical. An excerpt:
The experimental design exploits the plasmid DNA assay system, and agarose gel electrophoresis, as described previously to evaluate DNA breakage by the labelled minor groove binding DNA ligand, ^125I-iodoHoechst 33258 (Lobachevsky, Karagiannis and Martin 2004).
The accumulation of DNA single-stranded breaks and DNA double-stranded breaks is monitored by quantitation of the decline in the fraction of intact supercoiled plasmid (S), and the corresponding increase in the fractions of relaxed (R) and linear (L) species, with the progressive accumulation of decay events. Various assumptions enable the derivation of the relationship between the parameters S, R and L (or their normalised counterparts S′, R′ and L′), the number of decay events (n), and for example, the yield of double-stranded breaks per decay (d) of isotope in DNA-bound ligand. […] Accordingly, a double isotope strategy was developed, using a mixture of ^123I- and ^125I-iodoHoechst 33258. This approach yields a ratio d values, providing an estimate of the relative efficiency (^123I relative to ^125I) for double-strand breaks per decay, which is independent of f.
The basis of the double isotope method is apparent from the following relationship:
Where n1 is the number of ^123I decays, and n1m is the maximum (ie at time=infinity) number of ^123I decays.
A plot of the LHS term of the above equation versus n2 (the number of ^125I decay events in the incubation mixture) yields a two phase curve, the 2nd phase of which approaches a straight line (when n1=n1m). The values for the apparent breakage DNA dsb efficiency of ^123I and ^125I decays (da1 and da2, respectively) are obtained from the y intercept and from the gradient of the asymptote of the second phase of the curve, as shown in FIG. 14.
The apparent breakage efficiency is related to the actual efficiency of DNA-bound decay events, d, by the expression: da=df+δA
Where δA is the term for the “external” component of damage, arising from decay of non-DNA-bound isotope, which can be ignored because of the particular conditions of the
[formula] experiment, particularly, a low DNA concentration, A. Thus analysis of the data as exemplified in FIG. 14 provides the ratio of breakage efficiencies of ^123I versus ^125I decays.

The test system of test [2] is K562 cells. The experiment in a line: K562 cell survival after incubation with labelled iodoHoechst 33258. The test is classed as cell-based, human. Conditions: 500 nM for 1 hour at 37° C., decays accumulated at 5° C. for 24 hours. Here is the method:
Cells (5×10^5/ml) in RPMI-1640 medium containing 10% FBS and gentamicin were incubated with varying specific activities of ^127I/^123I-iodoHoechst 33258 (500 nM) for 1 hour at 37° C. Following incubation the cells were separated from the supernatant by 3 centrifugation (400×g for 3 minutes)-wash cycles. The cell pellets were suspended in RPMI medium and ^123I-decays were accumulated at 5° C. for 24 hours. Following accumulation of decays, the cell-pellets were isolated by centrifugation at 400×g for 3 minutes, suspended in AMEM containing 20% FBS and an appropriate cell number from each of the samples was cloned in semi-solid (0.33% (w/v)) noble agar in 6-well microtiter plates, as discussed above.

Values joined by “and” are separate entries in the source; they are usually repeats but may differ in a detail not shown here. Equal values may be shown once.

Take `CN1CCN(c2ccc3nc(-c4ccc5nc(-c6ccc(O)c(I)c6)[nH]c5c4)[nH]c3c2)CC1` [^123I-iodoHoechst 33258]: the “da1(^123I), apparent DNA dsb breakage efficiency” value in test [1] (DMSO added to 10% (D series)) was 0.158 and 0.170 and 0.159; in test [1] (aqueous buffer (N series)), 0.244 and 0.253 and 0.314. In addition, the “da1(^123I)/da2(^125I)” value was 0.63 and 0.69 and 0.62 in test [1] (DMSO added to 10% (D series)); 0.59 and 0.64 and 0.66 in test [1] (aqueous buffer (N series)). In addition, the “Average da1(^123I)/da2(^125I)” value in test [1] (DMSO added to 10% (D series), samples D1.2-D3.2) is on record as 0.65 ± 0.03; in test [1] (aqueous buffer (N series), samples N1.2-N3.2), 0.63 ± 0.03. The “decays required for a lethal event” value in test [2] is recorded as “about 230 ^123I-decays per cell”.

(Values after US8097238B2, “Cell targeting conjugates” (Peter MacCallum Cancer Institute, priority 2004, dated 2012).)
